In patent publication US11312727B1, “Macrocyclic flu endonuclease inhibitors” (Janssen BioPharma, Inc., priority 2018, dated 2022) one finds EC50 and CC50 data, which are given here for 20 compounds.

The subject of series [1] is Influenza strain A549 A/WSN/33 (H1N1). The experiment in a line: microbe, parasite or virus in culture. The conditions noted are these: Influenza A virus, A549, 20 h, A549 cells, influenza A/WSN/33 (H1N1), 20 hours incubation; read-out: A549_A(H1N1) EC50. The class given is cell-based.
A short description of a further series: in vitro. The conditions noted are these: human, CC50, uninfected A549 cells, CellTiter-Glo. A general note: ATP-based viability assays read luminescence as a measure of living cells.

The term EC50 denotes the concentration that produces a half-maximal response. For orientation: CC50 means the concentration that lowers cell viability or growth by half. In the case of `O=C1c2c(O)c(=O)ccn2N2CN1C1(/C=C/COc3cc(F)c(F)c4c3[C@H]2c2ccccc2SC4)CCC1` (single isomer, unassigned) [Compound 159B, (17a′*S,*E)-24′,25′-difluoro-12′-hydroxy-2′,17a′-dihydro-6′H-spiro[cyclobutane-1,9′-[3,4](epiprop[1]en[1]yl[3]ylidene)[10,17]methanobenzo[6,7]thiepino[4,5-c]pyrido[1,2-f][1]oxa[5,6,9]triazacyclotridecine]-11′,13′-dione], the EC50 in series [1] is 0.19 nM. In addition, the CC50 in “in vitro” is more than 100 nM.

With `CC[C@H]1/C=C/COc2c(ccc(F)c2F)[C@@H](c2ccccn2)N2CN1C(=O)c1c(O)c(=O)ccn12` (single isomer, unassigned) [Compound 160AA, (9*S,18*S,*E)-9-ethyl-3,4-difluoro-12-hydroxy-18-(pyridin-2-yl)-6,9-dihydro-18H-10,17-methanobenzo[b]pyrido[1,2-f][1]oxa[5,6,9]triazacyclotridecine-11,13-dione], the EC50 in series [1] came out at 5.2 nM. In addition, the 50% cytotoxic concentration (CC50) in “in vitro” was more than 100 nM.

Turning to `CC[C@@H]1/C=C/COc2c(ccc(F)c2F)[C@@H](c2ccccn2)N2CN1C(=O)c1c(O)c(=O)ccn12` (single isomer, unassigned) [Compound 160AB, (9*R,18*S,*E)-9-ethyl-3,4-difluoro-12-hydroxy-18-(pyridin-2-yl)-6,9-dihydro-18H-10,17-methanobenzo[b]pyrido[1,2-f][1]oxa[5,6,9]triazacyclotridecine-11,13-dione], in series [1], the EC50 is 2.8 nM. Further, the CC50 in “in vitro” was more than 100 nM.

On to `CC[C@H]1/C=C/COc2c(ccc(F)c2F)[C@H](c2ccccn2)N2CN1C(=O)c1c(O)c(=O)ccn12` (single isomer, unassigned) [Compound 160BA, (9*S,18*R,*E)-9-ethyl-3,4-difluoro-12-hydroxy-18-(pyridin-2-yl)-6,9-dihydro-18H-10,17-methanobenzo[b]pyrido[1,2-f][1]oxa[5,6,9]triazacyclotridecine-11,13-dione], for which the half-maximal effective concentration (EC50) in series [1] was more than 50 nM. Moreover, the CC50 in “in vitro” is more than 100 nM.

Take `CC[C@@H]1/C=C/COc2c(ccc(F)c2F)[C@H](c2ccccn2)N2CN1C(=O)c1c(O)c(=O)ccn12` (single isomer, unassigned) [Compound 160BB, (9*R,18*R,*E)-9-ethyl-3,4-difluoro-12-hydroxy-18-(pyridin-2-yl)-6,9-dihydro-18H-10,17-methanobenzo[b]pyrido[1,2-f][1]oxa[5,6,9]triazacyclotridecine-11,13-dione]: the EC50 in series [1] is more than 50 nM. The same compound returned a 50% cytotoxic concentration (CC50) in the series “in vitro” of more than 100 nM.

Consider `O=C1c2c(O)c(=O)ccn2N2CN1C[C@H]1C[C@@H](COc3cccc4c3[C@@H]2c2ccccc2SC4)C1` (single isomer, unassigned) [Compound 161A], for which, in series [1], the EC50 was more than 50 nM. This compound registered a CC50 in the series “in vitro” of more than 100 nM.

For `O=C1c2c(O)c(=O)ccn2N2CN1C[C@H]1C[C@@H](COc3cccc4c3[C@H]2c2ccccc2SC4)C1` (single isomer, unassigned) [Compound 161B], the EC50 in series [1] turned out to be 15 nM. The half-maximal cytotoxic concentration (CC50) in “in vitro” was more than 100 nM.

`C[C@@H]1/C=C/COc2cc(F)c(F)c3c2[C@H](c2ccccc2SC3)N2CN1C(=O)c1c(O)c(=O)ccn12` (single isomer, unassigned) [Compound 162A, (9*R,17a*R,*E)-24,25-difluoro-12-hydroxy-9-methyl-2,6,9,17a-tetrahydro-3,4-(epiprop[1]en[1]yl[3]ylidene)-10,17-methanobenzo[6,7]thiepino[4,5-c]pyrido[1,2-f][1]oxa[5,6,9]triazacyclotridecine-11,13-dione]: the EC50 in series [1] was more than 50 nM. This compound came in with a CC50 in the series “in vitro” of more than 100 nM.

Consider `C[C@H]1/C=C/COc2cc(F)c(F)c3c2[C@@H](c2ccccc2SC3)N2CN1C(=O)c1c(O)c(=O)ccn12` (single isomer, unassigned) [Compound 162B, (9*S,17a*S,*E)-24,25-difluoro-12-hydroxy-9-methyl-2,6,9,17a-tetrahydro-3,4-(epiprop[1]en[1]yl[3]ylidene)-10,17-methanobenzo[6,7]thiepino[4,5-c]pyrido[1,2-f][1]oxa[5,6,9]triazacyclotridecine-11,13-dione], for which the EC50 in series [1] came to 0.23 nM. Moreover, the CC50 in “in vitro” was more than 100 nM.

For the compound `C[C@@H]1/C=C\COc2cc(F)c(F)c3c2[C@H](c2ccccc2SC3)N2CN1C(=O)c1c(O)c(=O)ccn12` (single isomer, unassigned) [Compound 162C, (13*R,21a*R,*Z)-24,25-difluoro-16-hydroxy-13-methyl-6,10,13,21a-tetrahydro-7,8-(epiprop[1]en[1]yl[3]ylidene)-14,21-methanobenzo[6,7]thiepino[4,5-c]pyrido[1,2-f][1]oxa[5,6,9]triazacyclotridecine-15,17-dione], the EC50 in series [1] turned out to be 10 nM. In “in vitro”, this compound registered a CC50 of more than 100 nM.

As for `C[C@H]1/C=C\COc2cc(F)c(F)c3c2C(c2ccccc2SC3)N2CN1C(=O)c1c(O)c(=O)ccn12` (single isomer, unassigned) [Compound 162D, (13*S,21a*S,*Z)-24,25-difluoro-16-hydroxy-13-methyl-6,10,13,21a-tetrahydro-7,8-(epiprop[1]en[1]yl[3]ylidene)-14,21-methanobenzo[6,7]thiepino[4,5-c]pyrido[1,2-f][1]oxa[5,6,9]triazacyclotridecine-15,17-dione], the EC50 in series [1] was found to be 0.51 nM. The compound also yielded a CC50 in “in vitro” of more than 100 nM.

Consider `O=C1c2c(O)c(=O)ccn2N2CN1[C@@H](C(F)F)/C=C/COc1cccc3c1[C@@H]2c1ccccc1SC3` (single isomer, unassigned) [Compound 163BA, (9*R,17a*R,*E)-9-(difluoromethyl)-12-hydroxy-2,6,9,17a-tetrahydro-3,4-(epiprop[1]en[1]yl[3]ylidene)-10,17-methanobenzo[6,7]thiepino[4,5-c]pyrido[1,2-f][1]oxa[5,6,9]triazacyclotridecine-11,13-dione], for which, in series [1], the EC50 was more than 50 nM. This compound also returned a CC50 in “in vitro” of more than 100 nM.

As for `O=C1c2c(O)c(=O)ccn2N2CN1[C@H](C(F)F)/C=C/COc1cccc3c1[C@@H]2c1ccccc1SC3` (single isomer, unassigned) [Compound 163BB, (9*S,17a*R,*E)-9-(difluoromethyl)-12-hydroxy-2,6,9,17a-tetrahydro-3,4-(epiprop[1]en[1]yl[3]ylidene)-10,17-methanobenzo[6,7]thiepino[4,5-c]pyrido[1,2-f][1]oxa[5,6,9]triazacyclotridecine-11,13-dione], the EC50 in series [1] is more than 50 nM. The CC50 in “in vitro” is more than 100 nM.

Turning to `CC[C@H]1CCCOc2c(ccc(F)c2F)[C@@H](c2ccccc2)N2CN1C(=O)c1c(O)c(=O)ccn12` (single isomer, unassigned) [Compound 164A, (9*S,18*R)-9-ethyl-3,4-difluoro-12-hydroxy-18-phenyl-6,7,8,9-tetrahydro-18H-10,17-methanobenzo[b]pyrido[1,2-f][1]oxa[5,6,9]triazacyclotridecine-11,13-dione], the EC50 in series [1] was more than 50 nM. The compound further had a cytotoxic concentration (CC50) in the series “in vitro” of more than 100 nM.

As to `CC[C@@H]1CCCOc2c(ccc(F)c2F)[C@H](c2ccccc2)N2CN1C(=O)c1c(O)c(=O)ccn12` (single isomer, unassigned) [Compound 164B, (9*R,18*S)-9-ethyl-3,4-difluoro-12-hydroxy-18-phenyl-6,7,8,9-tetrahydro-18H-10,17-methanobenzo[b]pyrido[1,2-f][1]oxa[5,6,9]triazacyclotridecine-11,13-dione], the 50% effective concentration (EC50) in series [1] was 2.4 nM. This compound also gave a CC50 in “in vitro” of more than 100 nM.

For the compound `O=C1c2c(O)c(=O)ccn2N2CN1C/C=C\COc1c(ccc(F)c1F)[C@H]2c1ccccc1C(F)F` (single isomer, unassigned) [Compound 165A, (18*R,Z)-18-(2-(difluoromethyl)phenyl)-3,4-difluoro-12-hydroxy-6,9-dihydro-18H-10,17-methanobenzo[b]pyrido[1,2-f][1]oxa[5,6,9]triazacyclotridecine-11,13-dione], the EC50 in series [1] was 7.2 nM. In “in vitro”, this compound displayed a 50% cytotoxic concentration (CC50) of more than 100 nM.

Take `O=C1c2c(O)c(=O)ccn2N2CN1C/C=C\COc1c(ccc(F)c1F)[C@@H]2c1ccccc1C(F)F` (single isomer, unassigned) [Compound 165B, (18*S,*Z)-18-(2-(difluoromethyl)phenyl)-3,4-difluoro-12-hydroxy-6,9-dihydro-18H-10,17-methanobenzo[b]pyrido[1,2-f][1]oxa[5,6,9]triazacyclotridecine-11,13-dione]: the EC50 in series [1] was more than 50 nM. The CC50 in the series “in vitro” is more than 100 nM.

Turning to `O=C1c2c(O)c(=O)ccn2N2CN1C1(/C=C/COc3cc(F)c(F)c4c3[C@@H]2c2ncccc2SC4)CCC1` (single isomer, unassigned) [Compound 168A, (21a′*R,*E)-24′,25′-difluoro-16′-hydroxy-6′,21a′-dihydro-10′H-spiro[cyclobutane-1,13′-[7,8](epiprop[1]en[1]yl[3]ylidene)[14,21]methanopyrido[1,2-f]pyrido[2′,3′:6,7]thiepino[4,5-c][1]oxa[5,6,9]triazacyclotridecine]-15′,17′-dione], the EC50 in series [1] was more than 50 nM. In addition, the CC50 in “in vitro” is more than 100 nM.

For the compound `CC(C)[C@H]1/C=C/COc2cc(F)c(F)c3c2[C@@H](c2ccccc2SC3)N2CN1C(=O)c1c(O)c(=O)ccn12` (single isomer, unassigned) [Compound 169AA, (9*S,17a*S,*E)-24,25-difluoro-12-hydroxy-9-isopropyl-2,6,9,17a-tetrahydro-3,4-(epiprop[1]en[1]yl[3]ylidene)-10,17-methanobenzo[6,7]thiepino[4,5-c]pyrido[1,2-f][1]oxa[5,6,9]triazacyclotridecine-11,13-dione], the 50% effective concentration (EC50) in series [1] amounted to 48 nM. The compound further gave a CC50 in the series “in vitro” of more than 100 nM.

On to `CC(C)[C@@H]1/C=C/COc2cc(F)c(F)c3c2[C@@H](c2ccccc2SC3)N2CN1C(=O)c1c(O)c(=O)ccn12` (single isomer, unassigned) [Compound 169AB, (9*R,17a*S,*E)-24,25-difluoro-12-hydroxy-9-isopropyl-2,6,9,17a-tetrahydro-3,4-(epiprop[1]en[1]yl[3]ylidene)-10,17-methanobenzo[6,7]thiepino[4,5-c]pyrido[1,2-f][1]oxa[5,6,9]triazacyclotridecine-11,13-dione], for which the EC50 in series [1] is more than 50 nM. The CC50 in “in vitro” is more than 100 nM.
